Target: T1, Recombinant human renin (Homo sapiens, UniProt P00797)
T1 construct: isolate the active form (residues 67-406); made in house; host or cells: FreeStyle 293-F cells, transient expression of pcDNA3.1(+)/hREN
T1 sequence (P00797 67-406): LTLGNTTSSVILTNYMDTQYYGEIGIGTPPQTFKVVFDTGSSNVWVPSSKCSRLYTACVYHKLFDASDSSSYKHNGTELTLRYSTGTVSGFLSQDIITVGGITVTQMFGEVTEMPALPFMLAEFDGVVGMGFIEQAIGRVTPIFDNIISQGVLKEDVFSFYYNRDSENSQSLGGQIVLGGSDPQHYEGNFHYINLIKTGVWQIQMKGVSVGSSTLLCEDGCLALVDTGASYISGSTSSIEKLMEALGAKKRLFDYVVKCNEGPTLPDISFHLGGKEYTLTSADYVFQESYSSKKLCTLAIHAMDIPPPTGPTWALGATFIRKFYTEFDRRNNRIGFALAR
Test: In vitro enzymatic activity assay of renin inhibitors (fluorescence, QXL520/HiLyteFluo488 peptide substrate)
Type: biochemical
Details: recombinant human renin 3 nM, 1 μM substrate, pre-incubated 10 minutes at 37° C., incubation one hour, pH 7.4, 5% DMSO; read-out: IC50 of Exemplified Compounds Against Renin

Row | SMILES | IC50 [nM]
1 | CC(=O)N1CCCC(n2c(-c3ccccc3)c(C(=O)N3CCNC[C@H]3Cc3ccccc3)[nH]c2=O)C1 (stereo partly drawn) [Example 115, 1-(1-Acetylpiperidin-3-yl)-4-((R)-2-benzylpiperazine-1-carbonyl)-5-phenyl-1H-imidazol-2(3H)-one] | 500 to 1000
2 | O=C(Nc1ccccc1-n1c(-c2ccccc2)c(C(=O)N2CCNC[C@H]2Cc2ccccc2)[nH]c1=O)C1CC1 [Example 120, (R)—N-(2-(4-(2-Benzylpiperazine-1-carbonyl)-2-oxo-5-phenyl-2,3-dihydro-1H-imidazol-1-yl)phenyl)cyclopropanecarboxamide] | 100 to 500
3 | CCCC(=O)Nc1ccccc1-n1c(-c2ccccc2)c(C(=O)N2CCNC[C@H]2Cc2ccccc2)[nH]c1=O [Example 121, (R)—N-(2-(4-(2-Benzylpiperazine-1-carbonyl)-2-oxo-5-phenyl-2,3-dihydro-1H-imidazol-1-yl)phenyl)butyramide] | 100 to 500
4 | O=C(c1[nH]c(=O)n(-c2ccccc2NS(=O)(=O)C2CC2)c1-c1ccccc1)N1CCNC[C@H]1Cc1ccccc1 [Example 123, (R)—N-(2-(4-(2-Benzylpiperazine-1-carbonyl)-2-oxo-5-phenyl-2,3-dihydro-1H-imidazol-1-yl)phenyl)cyclopropanesulfonamide] | 100 to 500
5 | O=C(c1[nH]c(=O)n([C@H]2CCCC[C@@H]2O)c1-c1ccccc1)N1CCNC[C@H]1Cc1ccccc1 [Example 126, 4-((R)-2-Benzylpiperazine-1-carbonyl)-1-((1S,2S)-2-hydroxycyclohexyl)-5-phenyl-1H-imidazol-2(3H)-one] | < 100
6 | CCS(=O)(=O)Nc1ccccc1-n1c(-c2ccccc2)c(C(=O)N2CCNC[C@H]2Cc2ccccc2)[nH]c1=O [Example 127, (R)—N-(2-(4-(2-Benzylpiperazine-1-carbonyl)-2-oxo-5-phenyl-2,3-dihydro-1H-imidazol-1-yl)phenyl)ethanesulfonamide] | 100 to 500
7 | CCCCS(=O)(=O)Nc1ccccc1-n1c(-c2ccccc2)c(C(=O)N2CCNC[C@H]2Cc2ccccc2)[nH]c1=O [Example 128, (R)—N-(2-(4-(2-Benzylpiperazine-1-carbonyl)-2-oxo-5-phenyl-2,3-dihydro-1H-imidazol-1-yl)phenyl)butane-1-sulfonamide] | < 100
8 | C=CCS(=O)(=O)Nc1ccccc1-n1c(-c2ccccc2)c(C(=O)N2CCNC[C@H]2Cc2ccccc2)[nH]c1=O [Example 129, (R)—N-(2-(4-(2-Benzylpiperazine-1-carbonyl)-2-oxo-5-phenyl-2,3-dihydro-1H-imidazol-1-yl)phenyl)prop-2-ene-1-sulfonamide] | < 100
9 | O=C(c1[nH]c(=O)n(CC2(O)CCCCC2)c1-c1ccccc1)N1CCNC[C@H]1Cc1ccccc1 [Example 130, (R)-4-(2-Benzylpiperazine-1-carbonyl)-1-((1-hydroxycyclohexyl)methyl)-5-phenyl-1H-imidazol-2(3H)-one] | < 100
10 | CCCCN1CCCc2ccc(-n3c(-c4ccccc4)c(C(=O)N4CCNC[C@H]4Cc4ccccc4)[nH]c3=O)cc21 [Example 131] | < 100
11 | O=C(c1[nH]c(=O)n(-c2ccc3c(c2)NCCC3)c1-c1ccccc1)N1CCNC[C@H]1Cc1ccccc1 [Example 132, (R)-4-(2-Benzylpiperazine-1-carbonyl)-5-phenyl-1-(1,2,3,4-tetrahydroquinolin-7-yl)-1H-imidazol-2(3H)-one] | < 100
12 | CCCCN1CCCc2ccc(-n3c(C4CC4)c(C(=O)N4CCNC[C@H]4Cc4ccccc4)[nH]c3=O)cc21 [Example 133, (R)-4-(2-Benzylpiperazine-1-carbonyl)-1-(1-butyl-1,2,3,4-tetrahydroquinolin-7-yl)-5-cyclopropyl-1H-imidazol-2(3H)-one] | > 1000
13 | O=C(c1[nH]c(=O)n(-c2ccc3c(c2)NCCC3)c1C1CC1)N1CCNC[C@H]1Cc1ccccc1 [Example 134, (R)-4-(2-Benzylpiperazine-1-carbonyl)-5-cyclopropyl-1-(1,2,3,4-tetrahydroquinolin-7-yl)-1H-imidazol-2(3H)-one] | 500 to 1000
14 | CN1CCOc2ccc(-n3c(-c4ccccc4)c(C(=O)N4CCNC[C@H]4Cc4ccccc4)[nH]c3=O)cc21 [Example 135, (R)-4-(2-Benzylpiperazine-1-carbonyl)-1-(4-methyl-3,4-dihydro-2H-benzo[b][1,4]oxazin-6-yl)-5-phenyl-1H-imidazol-2(3H)-one] | < 100
15 | O=C(c1[nH]c(=O)n(-c2ccc3c(c2)NCC3)c1-c1ccccc1)N1CCNC[C@H]1Cc1ccccc1 [Example 136, (R)-4-(2-Benzylpiperazine-1-carbonyl)-1-(indolin-6-yl)-5-phenyl-1H-imidazol-2(3H)-one] | < 100
16 | COCCN1CCOc2ccc(-n3c(-c4ccccc4)c(C(=O)N4CCNC[C@H]4Cc4ccccc4)[nH]c3=O)cc21 [Example 137, (R)-4-(2-Benzylpiperazine-1-carbonyl)-1-(4-(2-methoxyethyl)-3,4-dihydro-2H-benzo[b][1,4]oxazin-6-yl)-5-phenyl-1H-imidazol-2(3H)-one] | < 100
17 | COC1CCc2ccc(-n3c(-c4ccccc4)c(C(=O)N4CCNC[C@H]4Cc4ccccc4)[nH]c3=O)cc21 (stereo partly drawn) [Example 138, 4-((R)-2-Benzylpiperazine-1-carbonyl)-1-(3-methoxy-2,3-dihydro-1H-inden-5-yl)-5-phenyl-1H-imidazol-2(3H)-one] | 100 to 500

Further lines, results first:

Row | IC50 [nM] | SMILES
18 | < 100 | O=C(NC[C@@H]1CNCCN1C(=O)c1[nH]c(=O)n(C2CCCCC2)c1-c1ccccc1)c1ccccc1 [Example 108, (S)—N-((1-(1-Cyclohexyl-2-oxo-5-phenyl-2,3-dihydro-1H-imidazole-4-carbonyl)piperazin-2-yl)methyl)benzamide]
19 | < 100 | O=C(c1[nH]c(=O)n(-c2ccccc2)c1-c1ccccc1)N1CCNC[C@H]1Cc1ccccc1 [Example 109, (R)-4-(2-Benzylpiperazine-1-carbonyl)-1,5-diphenyl-1H-imidazol-2(3H)-one]
20 | < 100 | O=C(c1[nH]c(=O)n(-c2cccc(N3CCOCC3)c2)c1-c1ccccc1)N1CCNC[C@H]1Cc1ccccc1 [Example 110, (R)-4-(2-Benzylpiperazine-1-carbonyl)-1-(3-morpholinophenyl)-5-phenyl-1H-imidazol-2(3H)-one]
21 | < 100 | O=C(c1[nH]c(=O)n(C2CCCCC2)c1-c1ccccc1)N1CCNC[C@H]1Cc1ccccc1 [Example 111, (R)-4-(2-Benzylpiperazine-1-carbonyl)-1-cyclohexyl-5-phenyl-1H-imidazol-2(3H)-one]
22 | < 100 | COc1cccc(-n2c(-c3ccccc3)c(C(=O)N3CCNC[C@H]3Cc3ccccc3)[nH]c2=O)c1OC [Example 112, (R)-4-(2-Benzylpiperazine-1-carbonyl)-1-(2,3-dimethoxyphenyl)-5-phenyl-1H-imidazol-2(3H)-one]
23 | < 100 | COc1ccccc1-n1c(-c2ccccc2)c(C(=O)N2CCNC[C@H]2Cc2ccccc2)[nH]c1=O [Example 113, (R)-4-(2-Benzylpiperazine-1-carbonyl)-1-(2-methoxyphenyl)-5-phenyl-1H-imidazol-2(3H)-one]
24 | < 100 | CS(=O)(=O)c1cccc(-n2c(-c3ccccc3)c(C(=O)N3CCNC[C@H]3Cc3ccccc3)[nH]c2=O)c1 [Example 114, (R)-4-(2-Benzylpiperazine-1-carbonyl)-1-(3-(methylsulfonyl)phenyl)-5-phenyl-1H-imidazol-2(3H)-one]
25 | < 100 | Cc1ccccc1-n1c(-c2ccccc2)c(C(=O)N2CCNC[C@H]2Cc2ccccc2)[nH]c1=O [Example 116, (R)-4-(2-Benzylpiperazine-1-carbonyl)-5-phenyl-1-o-tolyl-1H-imidazol-2(3H)-one]
26 | < 100 | O=C(c1[nH]c(=O)n(-c2ccccc2[N+](=O)[O-])c1-c1ccccc1)N1CCNC[C@H]1Cc1ccccc1 [Example 117, (R)-4-(2-Benzylpiperazine-1-carbonyl)-1-(2-nitrophenyl)-5-phenyl-1H-imidazol-2(3H)-one]
27 | < 100 | CS(=O)(=O)Nc1ccccc1-n1c(-c2ccccc2)c(C(=O)N2CCNC[C@H]2Cc2ccccc2)[nH]c1=O [Example 118, (R)—N-(2-(4-(2-Benzylpiperazine-1-carbonyl)-2-oxo-5-phenyl-2,3-dihydro-1H-imidazol-1-yl)phenyl)methanesulfonamide]
28 | < 100 | CCCS(=O)(=O)Nc1ccccc1-n1c(-c2ccccc2)c(C(=O)N2CCNC[C@H]2Cc2ccccc2)[nH]c1=O [Example 119, (R)—N-(2-(4-(2-Benzylpiperazine-1-carbonyl)-2-oxo-5-phenyl-2,3-dihydro-1H-imidazol-1-yl)phenyl)propane-1-sulfonamide]
29 | < 100 | CC(=O)Nc1ccccc1-n1c(-c2ccccc2)c(C(=O)N2CCNC[C@H]2Cc2ccccc2)[nH]c1=O [Example 122, (R)—N-(2-(4-(2-Benzylpiperazine-1-carbonyl)-2-oxo-5-phenyl-2,3-dihydro-1H-imidazol-1-yl)phenyl)acetamide]
30 | < 100 | O=C(Nc1ccccc1-n1c(-c2ccccc2)c(C(=O)N2CCNC[C@H]2Cc2ccccc2)[nH]c1=O)c1ccccc1 [Example 124, (R)—N-(2-(4-(2-Benzylpiperazine-1-carbonyl)-2-oxo-5-phenyl-2,3-dihydro-1H-imidazol-1-yl)phenyl)benzamide]
31 | < 100 | O=C(c1[nH]c(=O)n(-c2ccccc2NS(=O)(=O)c2ccccc2)c1-c1ccccc1)N1CCNC[C@H]1Cc1ccccc1 [Example 125, (R)—N-(2-(4-(2-benzylpiperazine-1-carbonyl)-2-oxo-5-phenyl-2,3-dihydro-1H-imidazol-1-yl)phenyl)Benzenesulfonamide]

Reference: patent US8148367B2 (Takeda Pharmaceutical Company Limited, priority 2008, dated 2012)
